Test results reported in patent publication US9526699B2, “Biodegradable and thermosensitive poly(organophosphazene) hydrogel, preparation method thereof and use thereof” (KIST, priority 2006, dated 2016).

Key:
[1] = system: Cells of stomach cancer, SNU-601; test: In vivo anti-cancer activity of the poly(organophosphazene) hydrogel containing paclitaxel; set-up: species or system nude mouse; conditions: 60 mg/kg, day 10 after administration, ten mice per group
Experimental: A nude mouse (OrientalBio, Balb/C, female of 5-weeks old, 20 g) was used as an animal model for animal experimentation for an in vivo test. Cells of stomach cancer, SNU-601 (1×10^7 cells, 0.2 ml, Korean Cell Line Bank), were injected into the dorsum of the mouse. […] 0.2 ml of the solution was injected into the cancer cells, and the change in the size of the cells was measured.
Each test was conducted for ten (10) mice for each of the control groups and the experimental groups.

[2] = molecular target: T1, albumin (Bovin Serum Albumin; BSA) (Bos taurus, UniProt P02769); test: Gel electrophoresis for ionic bond between additives and protein drug; assay type: binding; conditions: additive at various concentrations in 0.01% albumin solution
T1 construct: purchased Wako chemical
T1 sequence (P02769 25-607): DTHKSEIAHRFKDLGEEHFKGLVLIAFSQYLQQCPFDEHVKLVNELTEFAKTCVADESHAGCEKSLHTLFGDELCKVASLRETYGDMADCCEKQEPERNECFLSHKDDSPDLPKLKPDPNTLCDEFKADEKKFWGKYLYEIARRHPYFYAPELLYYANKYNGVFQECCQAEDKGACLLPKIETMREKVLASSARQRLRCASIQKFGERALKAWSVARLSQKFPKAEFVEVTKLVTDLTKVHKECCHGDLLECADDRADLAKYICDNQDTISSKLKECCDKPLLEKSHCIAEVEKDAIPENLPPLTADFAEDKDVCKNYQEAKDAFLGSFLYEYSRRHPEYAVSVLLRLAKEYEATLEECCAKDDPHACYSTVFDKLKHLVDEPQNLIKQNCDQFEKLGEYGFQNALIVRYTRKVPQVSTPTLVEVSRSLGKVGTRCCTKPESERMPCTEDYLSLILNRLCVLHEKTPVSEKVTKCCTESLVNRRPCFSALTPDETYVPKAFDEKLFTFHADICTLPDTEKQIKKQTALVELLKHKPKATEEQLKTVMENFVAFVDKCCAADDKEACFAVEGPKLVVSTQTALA
Experimental: Each of them was added to 0.01% albumin solution (Bovin Serum Albumin; BSA, Wako chemical) at various concentrations and sufficiently stirred. After holding for 20 minutes, an electrophoresis for each of the obtained solutions was conducted through polyacrylamide gel.

Molecule | mice died due to toxicity [1] [mice] | development property in polyacrylamide gel (ionic bond with albumin) [2]
CC(=O)O[C@H]1C(=O)[C@@]2(C)[C@H]([C@H](OC(=O)c3ccccc3)[C@]3(O)C[C@H](OC(=O)[C@H](O)[C@@H](NC(=O)c4ccccc4)c4ccccc4)C(C)=C1C3(C)C)[C@]1(OC(C)=O)CO[C@@H]1C[C@@H]2O [Paclitaxel, paclitaxel] | 8 | 
protamine |  | worse development property of the gel as the concentration of the additive is higher
